Read-outs that look alike come from different tables or passages of the source.
What was measured:
Format in all cases: cell-based
[1] = test system: MCF-7; assay: MTT cell viability assay, MCF-7; settings: Homo sapiens, read-out: IC50/μM MCF-7
Method: (§1) Cells were then treated with compound at various concentrations in 0.2 mL media. After the 72-hour incubation period, cells were washed in PBS (3×100 μL), and 10 μL MTT reagent was added with 100 μL fresh media. Cells were then incubated for 4 hr in a humidified chamber at 37° C. with 5% CO2. Insoluble formazan crystals were solubilized by addition of 0.1 mL detergent solution (4 hr at room temp., dark). Resulting colored solutions were then quantified at an absorbance of 570 nm.

[2] = test system: MEF (C57BL/6); assay: MTT cell viability assay, MEF (C57BL/6); settings: Mus musculus
Method: as §1

[3] = test system: MDA-MB-231; assay: MTT cell viability assay, MDA-MB-231; settings: Homo sapiens
Method: as §1

[4] = MTT, 72-hour incubation, read-out: IC50/μM MEF (C57BL/6)
[5] = MCF7, 72 h, MTT, 72-hour incubation
[6] = 72 h, read-out: IC50/μM MEF (C57BL/6), MTT, 72-hour incubation
[7] = MDA-MB-231, 72 h, 72-hour incubation

## CCn1c(=O)/c(=C2\Sc3cc(F)ccc3N2C)s/c1=C\c1scc[n+]1[C@@H](C)c1ccccc1 [JG-336]
[1]; MCF7, MTT, 72-hour incubation
  IC50: 0.18 ± 0.02 µM
[2]; [4]
  IC50: 2.2 ± 0.1 µM
[3]; MDA-MB-231, 72-hour incubation
  IC50: 0.21 ± 0.02 µM

## CCc1ccc2c(c1)S/C(=c1/s/c(=C\c3scc[n+]3Cc3ccccc3OC)n(CC)c1=O)N2C [JG-346]
[1]; MCF7, MTT, 72-hour incubation
  IC50: 0.11 ± 0.01 µM
[2]; [4]
  IC50: 0.71 ± 0.03 µM
[3]; MDA-MB-231, 72-hour incubation
  IC50: 0.073 ± 0.007 µM

## CCc1ccc2c(c1)S/C(=c1/s/c(=C\c3scc[n+]3Cc3ccccc3C(F)(F)F)n(CC)c1=O)N2C [JG-298]
[1]; MCF7, MTT, 72-hour incubation
  IC50: 0.052 ± 0.004 µM
[2]; [4]
  IC50: 0.43 ± 0.02 µM
[3]; MDA-MB-231, 72-hour incubation
  IC50: 0.11 ± 0.01 µM

## CCn1c(=O)/c(=C2\Sc3ccc(C)cc3N2C)s/c1=C\c1scc[n+]1Cc1ccccc1SC(F)(F)F [JG-363]
[1]; MCF7, MTT, 72-hour incubation
  IC50: 0.067 ± 0.005 µM
[2]; [4]
  IC50: 2.1 ± 0.1 µM
[3]; MDA-MB-231, 72-hour incubation
  IC50: 0.084 ± 0.012 µM

## CCc1ccc2c(c1)S/C(=c1/s/c(=C\c3scc[n+]3Cc3ccccc3Cl)n(CC)c1=O)N2C [JG-295]
[1]; MCF7, MTT, 72-hour incubation
  IC50: 0.084 ± 0.006 µM
[2]; [4]
  IC50: 0.48 ± 0.01 µM
[3]; MDA-MB-231, 72-hour incubation
  IC50: 0.093 ± 0.005 µM

## CCn1c(=O)/c(=C2\Sc3cc(SC)ccc3N2C)s/c1=C\c1scc[n+]1Cc1cc(C)sc1C [JG-359]
[1]; MCF7, MTT, 72-hour incubation
  IC50: 0.21 ± 0.01 µM
[2]; [4]
  IC50: 1.6 ± 0.1 µM
[3]; MDA-MB-231, 72-hour incubation
  IC50: 0.25 ± 0.01 µM

## CCn1c(=O)/c(=C2\Sc3cc(C)ccc3N2C)s/c1=C\c1scc[n+]1Cc1c(C)cccc1C [JG-372]
[1]; MCF7, MTT, 72-hour incubation
  IC50: 0.18 ± 0.01 µM
[2]; [4]
  IC50: 0.67 ± 0.01 µM
[3]; MDA-MB-231, 72-hour incubation
  IC50: 0.68 ± 0.16 µM

## CN1/C(=c2\s/c(=C\c3scc[n+]3Cc3ccccc3)n(C)c2=O)Sc2ccccc21 [JG-277]
[1]; MCF7, MTT, 72-hour incubation
  IC50: 0.39 ± 0.03 µM
[2]; [4]
  IC50: 4.1 ± 0.2 µM
[3]; MDA-MB-231, 72-hour incubation
  IC50: 0.49 ± 0.05 µM

## CCn1c(=O)/c(=C2\Sc3cc(OC)ccc3N2C)s/c1=C\c1scc[n+]1Cc1c(C)cccc1C [JG-349]
[1]; MCF7, MTT, 72-hour incubation
  IC50: 0.12 ± 0.01 µM
[2]; [4]
  IC50: 1.1 ± 0.1 µM
[3]; MDA-MB-231, 72-hour incubation
  IC50: 0.23 ± 0.01 µM

## CCn1c(=O)/c(=C2\Sc3cc(SC)ccc3N2C)s/c1=C\c1scc[n+]1Cc1ccccc1Cl [JG-309]
[1]; [5]
  IC50: 0.15 ± 0.01 µM
[2]; [6]
  IC50: 0.75 ± 0.05 µM
[3]; [7]
  IC50: 0.13 ± 0.01 µM

## CCn1c(=O)/c(=C2\Sc3cc(C)ccc3N2C)s/c1=C\c1scc[n+]1CCc1ccc(Cl)cc1 [JG-386]
[1]; MCF7, MTT, 72-hour incubation
  IC50: 0.53 ± 0.05 µM
[2]; [4]
  IC50: 1.7 ± 0.1 µM
[3]; MDA-MB-231, 72-hour incubation
  IC50: 0.28 ± 0.03 µM

## CCn1c(=O)/c(=C2\Sc3ccc(C)cc3N2C)s/c1=C\c1scc[n+]1Cc1c(Cl)cccc1Cl [JG-361]
[1]; [5]
  IC50: 0.088 ± 0.008 µM
[2]; [6]
  IC50: 0.55 ± 0.03 µM
[3]; [7]
  IC50: 0.054 ± 0.006 µM

## CCn1c(=O)/c(=C2\Sc3cc(Cl)ccc3N2C)s/c1=C\c1scc[n+]1CCc1ccc(C(F)(F)F)cc1 [JG-387]
[1]; MCF7, MTT, 72-hour incubation
  IC50: 0.78 ± 0.09 µM
[2]; [4]
  IC50: > 10 µM
[3]; MDA-MB-231, 72-hour incubation
  IC50: 0.74 ± 0.04 µM

## CCn1c(=O)/c(=C2\Sc3cc(C)ccc3N2C)s/c1=C\c1scc[n+]1Cc1c(Cl)cccc1Cl [JG-371]
[1]; MCF7, MTT, 72-hour incubation
  IC50: 0.069 ± 0.004 µM
[2]; [4]
  IC50: 0.68 ± 0.02 µM
[3]; MDA-MB-231, 72-hour incubation
  IC50: 0.07 ± 0.01 µM

## CCn1c(=O)/c(=C2\Sc3cc(Br)ccc3N2C)s/c1=C\c1scc[n+]1Cc1ccccc1Cl [JG-289]
[1]; MCF7, MTT, 72-hour incubation
  IC50: 0.27 ± 0.02 µM
[2]; [4]
  IC50: 0.96 ± 0.05 µM
[3]; MDA-MB-231, 72-hour incubation
  IC50: 0.12 ± 0.02 µM

## CCn1c(=O)/c(=C2\Sc3ccc(C)cc3N2C)s/c1=C\c1scc[n+]1Cc1ccccc1Br [JG-367]
[1]; MCF7, MTT, 72-hour incubation
  IC50: 0.12 ± 0.01 µM
[2]; [4]
  IC50: 0.54 ± 0.02 µM
[3]; MDA-MB-231, 72-hour incubation
  IC50: 0.22 ± 0.02 µM

## CCn1c(=O)/c(=C2\Sc3cc(Cl)ccc3N2C)s/c1=C\c1scc[n+]1Cc1c(C)cccc1C [JG-333]
[1]; MCF7, MTT, 72-hour incubation
  IC50: 0.35 ± 0.04 µM
[2]; [4]
  IC50: 1.1 ± 0.1 µM
[3]; MDA-MB-231, 72-hour incubation
  IC50: 0.19 ± 0.02 µM

## CCn1c(=O)/c(=C2\Sc3cc(Cl)ccc3N2C)s/c1=C\c1scc[n+]1Cc1ccccc1SC(F)(F)F [JG-253]
[1]; [5]
  IC50: 0.13 ± 0.01 µM
[2]; [6]
  IC50: 3.7 ± 0.2 µM
[3]; [7]
  IC50: 0.16 ± 0.01 µM

## CCn1c(=O)/c(=C2\Sc3cc(C(C)C)ccc3N2C)s/c1=C\c1scc[n+]1Cc1ccccc1C [JG-324]
[1]; MCF7, MTT, 72-hour incubation
  IC50: 0.17 ± 0.02 µM
[2]; [4]
  IC50: 1.9 ± 0.1 µM
[3]; MDA-MB-231, 72-hour incubation
  IC50: 0.15 ± 0.02 µM

## CCn1c(=O)/c(=C2\Sc3cc(OC)ccc3N2C)s/c1=C\c1scc[n+]1CCc1ccccc1C [JG-398]
[1]; MCF7, MTT, 72-hour incubation
  IC50: 0.24 ± 0.02 µM
[2]; [4]
  IC50: 1.1 ± 0.1 µM
[3]; MDA-MB-231, 72-hour incubation
  IC50: 0.14 ± 0.01 µM

## CCn1c(=O)/c(=C2\Sc3cc(C(C)C)ccc3N2C)s/c1=C\c1scc[n+]1Cc1ccccc1OC(F)(F)F [JG-325]
[1]; MCF7, 72 h
  IC50: 0.09 ± 0.005 µM
[2]; [6]
  IC50: 0.48 ± 0.02 µM
[3]; [7]
  IC50: 0.21 ± 0.01 µM

## CCn1c(=O)/c(=C2\Sc3cc(SC)ccc3N2C)s/c1=C\c1scc[n+]1Cc1ccccc1 [JG-249]
[1]; [5]
  IC50: 0.13 ± 0.01 µM
[2]; [6]
  IC50: 1.7 ± 0.1 µM
[3]; [7]
  IC50: 0.12 ± 0.01 µM

— patent US10221171B2, “Oxathiazole thiazolium Hsp 70 inhibitors” (THE REGENTS OF THE UNIVERSITY OF CALIFORNIA, priority 2015, dated 2019)
